Patent US12565501B2, “Muscarinic acetylcholine M1 receptor antagonists” (Contineum Therapeutics, Inc., priority 2019, dated 2026)

Key:
Format in all cases: cell-based
human M1 receptor = target: T1, human M1 receptor (Homo sapiens, UniProt P11229); experiment: In vitro functional assay of muscarinic acetylcholine receptor activity (aequorin calcium flux, reversal of EC80 acetylcholine response); conditions: CHO-K1 cells stably expressing human M1 receptor with aequorin; acetylcholine at EC80; calcium flux (luminescence); read-out: M1 IC50
T1 sequence (P11229 1-460): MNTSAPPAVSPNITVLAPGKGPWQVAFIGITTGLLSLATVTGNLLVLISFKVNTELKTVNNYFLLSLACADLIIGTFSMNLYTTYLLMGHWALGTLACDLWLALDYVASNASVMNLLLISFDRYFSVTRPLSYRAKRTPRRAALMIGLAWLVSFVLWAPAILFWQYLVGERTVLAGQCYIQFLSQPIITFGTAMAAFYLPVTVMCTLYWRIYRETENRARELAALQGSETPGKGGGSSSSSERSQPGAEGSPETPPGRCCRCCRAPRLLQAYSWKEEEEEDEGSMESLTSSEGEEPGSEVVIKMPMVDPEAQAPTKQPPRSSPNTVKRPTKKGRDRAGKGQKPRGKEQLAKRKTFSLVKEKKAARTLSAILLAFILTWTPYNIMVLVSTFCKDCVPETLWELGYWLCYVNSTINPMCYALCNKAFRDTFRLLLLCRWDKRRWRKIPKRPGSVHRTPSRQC
How it was run: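 CHO-K1 cells expressing human M1 and aequorin, loaded with 5 μM coelenterazine for 4 h, preincubated with compound 30 min at room temperature, then challenged with EC80 acetylcholine.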

human M4 receptor = target: T2, human M4 receptor (Homo sapiens, UniProt P08173); experiment: In vitro functional assay, reversal of EC80 acetylcholine response in CHO-K1 aequorin cells
T2 sequence (P08173 1-479): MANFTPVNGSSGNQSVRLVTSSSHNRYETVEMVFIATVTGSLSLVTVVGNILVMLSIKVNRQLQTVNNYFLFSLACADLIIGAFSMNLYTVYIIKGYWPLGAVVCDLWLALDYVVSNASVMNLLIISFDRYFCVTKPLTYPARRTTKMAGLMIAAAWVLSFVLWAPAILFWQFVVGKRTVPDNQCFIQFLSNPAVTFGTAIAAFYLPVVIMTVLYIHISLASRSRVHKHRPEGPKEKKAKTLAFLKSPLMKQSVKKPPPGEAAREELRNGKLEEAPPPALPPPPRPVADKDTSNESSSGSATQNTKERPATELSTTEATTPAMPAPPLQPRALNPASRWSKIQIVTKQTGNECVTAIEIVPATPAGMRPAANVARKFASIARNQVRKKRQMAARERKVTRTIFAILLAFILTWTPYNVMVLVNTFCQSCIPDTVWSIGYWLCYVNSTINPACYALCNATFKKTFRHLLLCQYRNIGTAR
Experimental: (§1) CHO-K1 cells stably expressing human M1 receptor with aequorin (Perkin Elmer) were grown in F12 media (Gibco) containing 10% FBS (ATCC), 0.4 mg/mL geneticin (Sigma-Aldrich) and 0.25 mg/mL Zeocin (Invitrogen). Cells were grown as per the manufacturer's protocol. For compound testing, cells were grown to confluency and detached gently with Accutase (Sigma-Aldrich) followed by centrifugation for 5 min at 150× g. Cells were then re-suspended in assay buffer (i.e. DMEM/F-12 HEPES without phenol red (Invitrogen) with 0.1% BSA (Sigma-Aldrich)) at a density of 5×10^6 cells/ml. Under sterile conditions, 5 μM coelenterazine (Invitrogen) was added to the cells, mixed, then incubated at room temperature protected from light, with gentle agitation, for 4 h.
(§2) Primary compound plates were prepared in 100% DMSO in opaque 96-well plates (VWR) and serially diluted in half log increments. Secondary compound plates were prepared at 3× concentration in assay buffer. Compounds were added to white, clear bottom tissue culture treated 96-well plates (Fisher Scientific). Coelenterazine-loaded cells were then added at 5×10^5 cells/well.
(§3) Compounds and cells were incubated at room temperature for 30 min in the dark. Acetylcholine at the EC80 concentration was added and calcium flux measured using a FlexStation 3 (Molecular Devices). Sigmoidal dose-response curves were generated by measuring luminescence over 40 sec and calculating the area under the curve. Dose response curves and IC50 values were generated using Prism (GraphPad). Compounds were tested at a final concentration range of 100 μM to […] in 0.1% DMSO.
(§4) CHO-K1 cells stably expressing human M2, M3 and M4 receptors, respectively, with aequonin (Perkin Elmer) were used to assess a test compound's ability to dose-dependently reverse the EC80 acetylcholine response. The IC50 of the compounds was calculated from the dose response curve.

human M2 receptor = target: T3, human M2 receptor (Homo sapiens, UniProt P08172); experiment: as above
T3 sequence (P08172 1-466): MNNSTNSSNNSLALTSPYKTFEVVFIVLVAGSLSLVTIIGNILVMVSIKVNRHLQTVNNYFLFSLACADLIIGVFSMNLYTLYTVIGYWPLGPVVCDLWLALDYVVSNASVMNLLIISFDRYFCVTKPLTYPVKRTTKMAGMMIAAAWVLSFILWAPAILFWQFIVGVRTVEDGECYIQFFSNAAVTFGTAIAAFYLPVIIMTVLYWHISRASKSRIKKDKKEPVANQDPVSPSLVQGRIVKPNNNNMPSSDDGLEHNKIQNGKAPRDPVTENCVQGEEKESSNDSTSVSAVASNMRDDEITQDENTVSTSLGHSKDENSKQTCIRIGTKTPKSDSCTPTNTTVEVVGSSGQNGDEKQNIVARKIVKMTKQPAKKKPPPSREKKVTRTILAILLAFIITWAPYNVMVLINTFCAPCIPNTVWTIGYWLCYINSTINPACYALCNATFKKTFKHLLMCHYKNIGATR
Experimental: as §1, §2, §3, §4

human M3 receptor = human M3 receptor (Homo sapiens, UniProt P20309); experiment: as above
Experimental: as §1, §2, §3, §4

Sequence of human M3 receptor (P20309 whole entry): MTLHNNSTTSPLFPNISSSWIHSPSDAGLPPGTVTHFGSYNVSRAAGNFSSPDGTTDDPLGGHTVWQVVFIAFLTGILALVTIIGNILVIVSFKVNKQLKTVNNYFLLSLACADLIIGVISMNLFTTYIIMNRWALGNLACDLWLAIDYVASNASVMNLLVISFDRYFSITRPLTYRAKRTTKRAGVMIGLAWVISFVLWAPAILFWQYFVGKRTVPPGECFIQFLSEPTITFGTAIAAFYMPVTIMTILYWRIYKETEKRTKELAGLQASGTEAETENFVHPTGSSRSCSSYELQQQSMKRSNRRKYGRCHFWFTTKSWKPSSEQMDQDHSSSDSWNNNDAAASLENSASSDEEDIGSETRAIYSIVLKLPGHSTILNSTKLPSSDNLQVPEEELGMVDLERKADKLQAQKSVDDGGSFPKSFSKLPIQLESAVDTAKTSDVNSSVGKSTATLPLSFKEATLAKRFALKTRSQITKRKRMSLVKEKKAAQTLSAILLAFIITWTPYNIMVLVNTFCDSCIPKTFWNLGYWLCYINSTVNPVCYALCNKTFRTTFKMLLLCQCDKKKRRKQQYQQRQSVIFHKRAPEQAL

Row | Structure (SMILES) | IC50 (human M1 receptor) [nM] | IC50 (human M4 receptor) [nM] | IC50 (human M2 receptor) [µM] | IC50 (human M3 receptor) [nM]
1 | N#Cc1ccc(N2C3CCC2CN(C(=O)CCC(F)(F)c2cccn4ncnc24)C3)nc1 [Example 158, 6-(3-(4-([1,2,4]triazolo[1,5-a]pyridin-8-yl)-4,4-difluorobutanoyl)-3,8-diazabicyclo[3.2.1]octan-8-yl)nicotinonitrile] | < 10 | 100 to 1000 | 1 to 10 | 100 to 1000
2 | COc1cc(C2(NCC(=O)N3CC4CCC(C3)N4c3ccc(C#N)cn3)CCC2)ccn1 [Example 118, 6-(3-((1-(2-methoxypyridin-4-yl)cyclobutyl)glycyl)-3,8-diazabicyclo[3.2.1]octan-8-yl)nicotinonitrile] | 10 to 100 | 100 to 1000 | 1 to 10 | 1000 to 10000
3 | COc1cccnc1C(F)(F)CCC(=O)N1CC2CCC(C1)N2c1ccc(C#N)cn1 [Example 162, 6-(3-(4,4-difluoro-4-(3-methoxypyridin-2-yl)butanoyl)-3,8-diazabicyclo[3.2.1]octan-8-yl)nicotinonitrile] | < 10 | 100 to 1000 | 1 to 10 | 100 to 1000
4 | COc1ccnc(C(F)(F)CCC(=O)N2CC3CCC(C2)N3c2ccc(C#N)cn2)c1 [Example 147, 6-(3-(4,4-difluoro-4-(4-methoxypyridin-2-yl)butanoyl)-3,8-diazabicyclo[3.2.1]oxtan-8-yl)nicotinonitrile] | < 10 | 100 to 1000 | 1 to 10 | 100 to 1000
5 | N#Cc1ccc(N2C3CC[C@H]2CN(C(=O)COC2(c4ccc(F)c(F)c4)CCC2)C3)nc1 [Example 239] | < 10 | 1000 to 10000 | 1 to 10 | 1000 to 10000
